Laboratory results as given in PubChem BioAssay AID1963858 (Molecular Pharmacology Branch, DTP, NCI, 2024).

Test system: HOP-62 multicell spheroids with HUVEC/MSC, viability
Assay: Anticancer human tumor HOP-62 cell line growth inhibition [KRAS2];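 further: viability read after a week of compound exposure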;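 on viability, T/C: 100% = DMSO vehicle-treated spheroids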
Conditions: for IC50: curve of first compound; for viability, T/C: stronger effect = lower value
Procedure, shortened: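 KRAS-mutant tumor cells were grown as spheroids with HUVEC endothelial cells and human MSCs as stroma. Targeted agents were tested alone and with KRAS pathway inhibitors. Doses started at or near clinical Cmax, or 10 microM, descending half-log.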

[1] = second compound 0.1 µM, first compound 0.0316 µM
[2] = second compound 0.316 µM, first compound 0.0316 µM
[3] = second compound 1 µM, first compound 0.0316 µM
[4] = second compound 3.16 µM, first compound 0.0316 µM
[5] = second compound 10 µM, first compound 0.0316 µM

CC(=O)Nc1cccc(-n2c(=O)n(C3CC3)c(=O)c3c(Nc4ccc(I)cc4F)n(C)c(=O)c(C)c32)c1 + C=CC(=O)N1CCN(c2nc(=O)n(-c3c(C)ccnc3C(C)C)c3nc(-c4c(O)cccc4F)c(F)cc23)C(C)C1
IC50 (second compound 0.1 µM): 780 pM
IC50 (second compound 0.316 µM): 879 pM
IC50 (second compound 1 µM): 915 pM
IC50 (second compound 3.16 µM): 561 pM
IC50 (second compound 10 µM): 124 pM
viability, T/C (second compound 0.1 µM, first compound 0.0001 µM): 78.5%
viability, T/C (second compound 0.1 µM, first compound 0.000316 µM): 61.2%
viability, T/C (second compound 0.1 µM, first compound 0.001 µM): 49.1%
viability, T/C (second compound 0.1 µM, first compound 0.00316 µM): 29.7%
viability, T/C (second compound 0.1 µM, first compound 0.01 µM): 18.9%
viability, T/C [1]: 14.7%
viability, T/C (second compound 0.316 µM, first compound 0.0001 µM): 61.6%
viability, T/C (second compound 0.316 µM, first compound 0.000316 µM): 72.7%
viability, T/C (second compound 0.316 µM, first compound 0.001 µM): 43.8%
viability, T/C (second compound 0.316 µM, first compound 0.00316 µM): 30.2%
viability, T/C (second compound 0.316 µM, first compound 0.01 µM): 19.2%
viability, T/C [2]: 16.8%
viability, T/C (second compound 1 µM, first compound 0.0001 µM): 73.8%
viability, T/C (second compound 1 µM, first compound 0.000316 µM): 61.7%
viability, T/C (second compound 1 µM, first compound 0.001 µM): 51%
viability, T/C (second compound 1 µM, first compound 0.00316 µM): 32%
viability, T/C (second compound 1 µM, first compound 0.01 µM): 22.6%
viability, T/C [3]: 18.5%
viability, T/C (second compound 3.16 µM, first compound 0.0001 µM): 77.2%
viability, T/C (second compound 3.16 µM, first compound 0.000316 µM): 50.6%
viability, T/C (second compound 3.16 µM, first compound 0.001 µM): 44.5%
viability, T/C (second compound 3.16 µM, first compound 0.00316 µM): 39.4%
viability, T/C (second compound 3.16 µM, first compound 0.01 µM): 26.2%
viability, T/C [4]: 22.1%
viability, T/C (second compound 10 µM, first compound 0.0001 µM): 53.8%
viability, T/C (second compound 10 µM, first compound 0.000316 µM): 39%
viability, T/C (second compound 10 µM, first compound 0.001 µM): 43%
viability, T/C (second compound 10 µM, first compound 0.00316 µM): 34.8%
viability, T/C (second compound 10 µM, first compound 0.01 µM): 26.8%
viability, T/C [5]: 22.8%

Cn1nccc1Nc1nccc(-c2cc3c(s2)C(C)(C)N(CCN2CCOCC2)C3=O)n1 + C=CC(=O)N1CCN(c2nc(=O)n(-c3c(C)ccnc3C(C)C)c3nc(-c4c(O)cccc4F)c(F)cc23)C(C)C1
IC50 (second compound 0.1 µM): 153000 pM
IC50 (second compound 0.316 µM): 253000 pM
IC50 (second compound 1 µM): 153000 pM
IC50 (second compound 3.16 µM): 361000 pM
IC50 (second compound 10 µM): < 31600 pM
viability, T/C [1]: 63.7%
viability, T/C (second compound 0.1 µM, first compound 0.1 µM): 56.7%
viability, T/C (second compound 0.1 µM, first compound 0.316 µM): 38.6%
viability, T/C (second compound 0.1 µM, first compound 1 µM): 23.9%
viability, T/C (second compound 0.1 µM, first compound 3.16 µM): 16.5%
viability, T/C (second compound 0.1 µM, first compound 10 µM): 17.1%
viability, T/C [2]: 64.5%
viability, T/C (second compound 0.316 µM, first compound 0.1 µM): 61.5%
viability, T/C (second compound 0.316 µM, first compound 0.316 µM): 47.3%
viability, T/C (second compound 0.316 µM, first compound 1 µM): 27.2%
viability, T/C (second compound 0.316 µM, first compound 3.16 µM): 20.4%
viability, T/C (second compound 0.316 µM, first compound 10 µM): 17%
viability, T/C [3]: 63.7%
viability, T/C (second compound 1 µM, first compound 0.1 µM): 54.4%
viability, T/C (second compound 1 µM, first compound 0.316 µM): 41.3%
viability, T/C (second compound 1 µM, first compound 1 µM): 31.3%
viability, T/C (second compound 1 µM, first compound 3.16 µM): 18.4%
viability, T/C (second compound 1 µM, first compound 10 µM): 24.6%
viability, T/C [4]: 50%
viability, T/C (second compound 3.16 µM, first compound 0.1 µM): 55%
viability, T/C (second compound 3.16 µM, first compound 0.316 µM): 52.1%
viability, T/C (second compound 3.16 µM, first compound 1 µM): 34%
viability, T/C (second compound 3.16 µM, first compound 3.16 µM): 25.2%
viability, T/C (second compound 3.16 µM, first compound 10 µM): 25%
viability, T/C [5]: 46.1%
viability, T/C (second compound 10 µM, first compound 0.1 µM): 41.5%
viability, T/C (second compound 10 µM, first compound 0.316 µM): 33.8%
viability, T/C (second compound 10 µM, first compound 1 µM): 28.2%
viability, T/C (second compound 10 µM, first compound 3.16 µM): 27.6%
viability, T/C (second compound 10 µM, first compound 10 µM): 34.4%
